In brackets after ≈: the same amount, converted by molar mass.
Key:
[1] = tested on: S. pyogenes; assay: microbe, parasite or virus in culture; parameters: species or system Streptococcus pyogenes ATCC 19615; conditions: Streptococcus pyogenes, read-out: MIC (ug/mL)
[2] = target: T1, HuDHFR (Homo sapiens, UniProt P00374); assay: DHFR inhibition assay; format: biochemical
T1 sequence (P00374 1-187): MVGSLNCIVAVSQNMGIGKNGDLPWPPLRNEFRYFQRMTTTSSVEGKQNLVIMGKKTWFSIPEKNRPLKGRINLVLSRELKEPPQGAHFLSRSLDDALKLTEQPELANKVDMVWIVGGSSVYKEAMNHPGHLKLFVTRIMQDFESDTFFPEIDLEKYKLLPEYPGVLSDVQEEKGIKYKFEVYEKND

Compound | MIC [1] | IC50 [2]
CCc1nc(N)nc(N)c1C#C[C@H](C)c1cc(OC)cc(-c2ccncc2)c1 [compound 28] | ≤ 0.039 µg/mL | –
CCc1nc(N)nc(N)c1C#C[C@@H](C)c1cc(OC)cc(-c2ccc(C(=O)O)cc2)c1 [compound 2] | ≤ 0.039 µg/mL | –
CCc1nc(N)nc(N)c1C#CC(C)c1cc(OC)c(OC)c(-c2ccncc2)c1 (stereo not drawn) [compound 29] | ≤ 0.039 µg/mL | –
CCc1nc(N)nc(N)c1C#C[C@H](C)c1ccc(OC)c(-c2ccncc2)c1 [compound 24] | ≤ 0.039 µg/mL | 74 ± 7 nM
CCc1nc(N)nc(N)c1C#C[C@H](C)c1cc(OC)c(OC)c(-c2ccncc2)c1 [compound 30] | ≤ 0.039 µg/mL | –
CCc1nc(N)nc(N)c1C#CCc1cc(OC)cc(-c2ccc(C(=O)O)cc2)c1 [compound 1] | ≤ 0.039 µg/mL | –
CCc1nc(N)nc(N)c1C#CC(C)c1cc(-c2ccncc2)cc2c1OCO2 (stereo not drawn) [compound 31] | ≤ 0.039 µg/mL | –
CCc1nc(N)nc(N)c1C#C[C@H](C)c1cc2c(c(-c3ccncc3)c1)OCO2 [compound 22] | ≤ 0.039 µg/mL | 85 ± 10 nM
CCc1nc(N)nc(N)c1C#CC(C)c1cc(-c2ccncc2)cc(F)c1OC (stereo not drawn) [compound 17] | ≤ 0.039 µg/mL | 234 ± 16 nM
CCc1nc(N)nc(N)c1C#CC(C)c1cc(O)c(O)c(-c2ccncc2)c1 (stereo not drawn) [compound 32] | 0.312 µg/mL (≈ 0.831 µM) | –
CCc1nc(N)nc(N)c1C#C[C@@H](C)c1cc(OC)cc(-c2ccncc2)c1 [compound 27] | ≤ 0.039 µg/mL | –
CCc1nc(N)nc(N)c1C#C[C@H](C)c1cc(-c2ccc(C(=O)O)cc2)ccc1OC [compound 4] | 0.078 µg/mL (≈ 0.187 µM) | –
CCc1nc(N)nc(N)c1C#CCc1cc(-c2ccc(C(=O)O)cc2)ccc1OC [compound 7] | 0.078 µg/mL (≈ 0.194 µM) | –
CCc1nc(N)nc(N)c1C#C[C@@H](C)c1cc2c(c(-c3ccncc3)c1)OCO2 [compound 21] | ≤ 0.039 µg/mL | 191 ± 12 nM
CCc1nc(N)nc(N)c1C#C[C@@H](C)c1cc(-c2ccc(C(=O)O)cc2)ccc1OC [compound 5] | 0.078 µg/mL (≈ 0.187 µM) | –
CCc1nc(N)nc(N)c1C#C[C@@H](C)c1ccc(OC)c(-c2ccncc2)c1 [compound 23] | ≤ 0.039 µg/mL | 68 ± 7 nM
CCc1nc(N)nc(N)c1C#CCc1cc(-c2ccccc2C(=O)O)ccc1OC [compound 6] | 0.625 µg/mL (≈ 1.55 µM) | –
CCc1nc(N)nc(N)c1C#CC(C)c1cc2c(c(-c3ccncc3)c1)OCCO2 (stereo not drawn) [compound 20] | ≤ 0.039 µg/mL | –
CCc1nc(N)nc(N)c1C#CC(C)c1cc2c(c(-c3cc(C)nc(C)c3)c1)OCCO2 (stereo not drawn) [compound 19] | ≤ 0.039 µg/mL | –
CCc1nc(N)nc(N)c1C#C[C@H](C)c1cc(OC)cc(-c2ccc(C(=O)O)cc2)c1 [compound 3] | ≤ 0.039 µg/mL | –

The remaining lines, values ahead:

MIC [1] | IC50 [2] | Compound
0.312 µg/mL (≈ 0.769 µM) | – | CCc1nc(N)nc(N)c1C#CC(C)c1cc(-c2cc(C)nc(C)c2)ccc1Cl (racemic) [compound 10]
0.312 µg/mL (≈ 0.685 µM) | – | CCc1nc(N)nc(N)c1C#CC(C)c1cc(-c2cc(C)nc(C)c2)ccc1OC(F)(F)F (stereo not drawn) [compound 15]
≤ 0.039 µg/mL | – | CCc1nc(N)nc(N)c1C#C[C@H](C)c1cc(-c2ccncc2)ccc1OC [compound 25]
≤ 0.039 µg/mL | – | CCc1nc(N)nc(N)c1C#C[C@@H](C)c1cc(-c2ccncc2)ccc1OC [compound 26]
≤ 0.039 µg/mL | – | CCc1nc(N)nc(N)c1C#CC(C)c1cccc(-c2cc(C)nc(C)c2)c1 (stereo not drawn) [compound 18]
0.312 µg/mL (≈ 0.685 µM) | – | CCc1nc(N)nc(N)c1C#C[C@H](C)c1cc(-c2cc(C)nc(C)c2)ccc1OC(F)(F)F [compound 12]
≤ 0.039 µg/mL | 210 ± 18 nM | CCc1nc(N)nc(N)c1C#C[C@H](C)c1cc(-c2cc(C)nc(C)c2)ccc1Cl [compound 9]
0.156 µg/mL (≈ 0.342 µM) | 167 ± 9 nM | CCc1nc(N)nc(N)c1C#C[C@@H](C)c1cc(-c2cc(C)nc(C)c2)ccc1OC(F)(F)F [compound 13]
≤ 0.039 µg/mL | – | CCc1nc(N)nc(N)c1C#CC(C)c1cc(F)cc(-c2cc(C)nc(C)c2)c1 (stereo not drawn) [compound 16]
0.625 µg/mL (≈ 1.42 µM) | – | CCc1nc(N)nc(N)c1C#CCc1cc(-c2cc(C)nc(C)c2)ccc1OC(F)(F)F [compound 14]
0.625 µg/mL (≈ 1.54 µM) | 207 ± 13 nM | CCc1nc(N)nc(N)c1C#C[C@@H](C)c1cc(-c2cc(C)nc(C)c2)ccc1Cl [compound 11]

Reference: doi:10.1101/504357v1 (biorxiv, 2018)
